Measured values reported in ChEMBL document CHEMBL2086285, “Targeting the liver stage of malaria parasites: a yet unmet goal” (J Med Chem, 2012).
pIC50: −log10 of the molar value.

These compounds were tested on Plasmodium yoelii (assay: Antimalarial activity against liver stages of Plasmodium yoelii 17XNL expressing GFP infected in human HepG2 cells transfected with CD81 assessed as growth inhibition of hepatic parasite after 40 hrs by flow cytometry). Settings: not given.
Assay type: functional, organism-based

How did the pIC50 turn out when `Oc1c(Cl)cc(Cl)c(Cl)c1Cc1c(O)c(Cl)cc(Cl)c1Cl` [HEXACHLOROPHENE] was run?
Its pIC50 is 5.40.

`CO[C@H]1/C=C/O[C@@]2(C)Oc3c(C)c(O)c4c(O)c(c(/C=N/N5CCN(C)CC5)c(O)c4c3C2=O)NC(=O)/C(C)=C\C=C\[C@H](C)[C@H](O)[C@@H](C)[C@@H](O)[C@@H](C)[C@H](OC(C)=O)[C@@H]1C` [RIFAMPIN] was tested. Which pIC50 did it give?
The pIC50 was 4.65.

Each compound was assayed on Plasmodium berghei (assay: Antimalarial activity against liver stages of Plasmodium berghei). Settings: not given.
Assay type: functional, organism-based

`COc1cc(NC(C)CCCNCc2ccc(CO[C@H]3O[C@@H]4O[C@@]5(C)CC[C@H]6[C@H](C)CCC([C@H]3C)[C@@]46OO5)cc2)c2ncccc2c1` (some centres undefined) was tested. Which pIC50 did it give?
Its pIC50 is 6.81.

How did the pIC50 turn out when `COc1cc(NC(C)CCCN)c2ncccc2c1` (centres undefined) [PRIMAQUINE] was run?
The pIC50 was 4.89.

The compounds below were run on Plasmodium cynomolgi (assay: Antimalarial activity against Plasmodium cynomolgi M infected in rhesus monkey administered as po qd for 7 days). Settings: in Macaca mulatta, 168 h.
Assay type: functional

`COc1cc(NCCCC(C)N)c2nc(C)ccc2c1` (centres undefined) was tested. Which ED50 did it give?
Its ED50 is 0.21 mg/kg.

Which ED50 does the source give for `COc1cc(NC(C)CCCN)c2nc(C)ccc2c1F` (centres undefined) here?
The ED50 was 0.21 mg/kg.

`CCC(CCCN)Nc1cc(OC)cc2c(C)ccnc12` (centres undefined) was tested. Which ED50 did it give?
The ED50 was 0.074 mg/kg.

With `CCN(CC)CCCNc1cc(OC)cc2c(C)ccnc12` as the compound, how does the ED50 read?
The ED50 was 0.51 mg/kg.

Which ED50 does the source give for `COc1cc(NCCCCCNC(C)C)c2nccc(C)c2c1` here?
Its ED50 is 0.5 mg/kg.

Which ED50 does the source give for `CCc1ccnc2c(NC(C)CCCN)cc(OC)cc12` (centres undefined) here?
Its ED50 is 0.45 mg/kg.

With `COc1cc(NCCCC(C)N)c2ncccc2c1Oc1cccc(C(F)(F)F)c1` (centres undefined) as the compound, how does the ED50 read?
The ED50 was 0.5 mg/kg.

For `COc1cc(NC(C)CCCN)c2nc(OCc3ccc(C(F)(F)F)cc3)ccc2c1` (centres undefined), which ED50 is on record?
Its ED50 is 0.5 mg/kg.

`COc1cc(NC(C)CCCN)c2nccc(C)c2c1OC` (centres undefined) was tested. Which ED50 did it give?
The ED50 was 0.098 mg/kg.

How did the ED50 turn out when `CCN(CC)CCCCC(C)Nc1cc(OC)cc2c(C)ccnc12` (centres undefined) was run?
The ED50 was 0.23 mg/kg.

`COc1cc(NC(C)CCCN)c2nc(C)ccc2c1Oc1ccc(F)cc1` (centres undefined) was tested. Which ED50 did it give?
Its ED50 is 0.22 mg/kg.

How did the ED50 turn out when `C=Cc1ccnc2c(NC(C)CCCN)cc(OC)cc12` (centres undefined) was run?
Its ED50 is 0.5 mg/kg.

With `COc1cc(NCCCC(C)N)c2nccc(C)c2c1` (centres undefined) as the compound, how does the ED50 read?
The ED50 was 0.11 mg/kg.

How did the ED50 turn out when `COc1cc(NC(C)CCCN)c2nccc(C)c2c1` (centres undefined) was run?
The ED50 was 0.2 mg/kg.

How did the ED50 turn out when `CCN(CC)CCCCCCNc1cc(OC)cc2c(C)ccnc12` [SITAMAQUINE] was run?
Its ED50 is 0.35 mg/kg.

How did the ED50 turn out when `CCC(N)CCCNc1cc(OC)cc2c(C)ccnc12` (centres undefined) was run?
The ED50 was 0.48 mg/kg.

`COc1cc(NC(C)CCCN)c2nc(N)ccc2c1` (centres undefined) was tested. Which ED50 did it give?
The ED50 was 0.36 mg/kg.

With `COc1cc(NC(C)CCCN)c2nc(OCc3ccc(F)cc3)ccc2c1` (centres undefined) as the compound, how does the ED50 read?
The ED50 was 0.35 mg/kg.

How did the ED50 turn out when `CCN(CC)CCCNc1cc(OC)cc2c(C)cc(C)nc12` was run?
Its ED50 is 0.36 mg/kg.

Which ED50 does the source give for `COc1cc(NC(C)CCCN)c2nccc(C)c2c1F` (centres undefined) here?
Its ED50 is 0.36 mg/kg.

With `COc1cc(NC(C)CCCN)c2nc(C)ccc2c1` (centres undefined) as the compound, how does the ED50 read?
The ED50 was 0.38 mg/kg.

For `COc1cc(NC(C)CCCN)c2ncccc2c1Oc1cccc(C(F)(F)F)c1` (centres undefined), which ED50 is on record?
Its ED50 is 0.25 mg/kg.

Which ED50 does the source give for `COc1cc(NC(C)CCCN)c2nccc(C)c2c1Oc1cccc(C(F)(F)F)c1` (centres undefined) here?
The ED50 was 0.11 mg/kg.

How did the ED50 turn out when `COc1cc(NC(C)CCCN)c2nc(C)cc(C)c2c1` (centres undefined) was run?
Its ED50 is 0.36 mg/kg.

With `COc1cc(NC(C)CCCN)c2nc(C)ccc2c1Oc1ccc(Cl)cc1` (centres undefined) as the compound, how does the ED50 read?
The ED50 was 0.19 mg/kg.

With `COc1cc(NC(C)CCCCNC(C)C)c2nccc(C)c2c1` (centres undefined) as the compound, how does the ED50 read?
Its ED50 is 0.35 mg/kg.

Which ED50 does the source give for `COc1cc(NC(C)CCCN)c2ncccc2c1Oc1ccc(F)cc1` (centres undefined) here?
The ED50 was 0.23 mg/kg.

With `COc1cc(NCCC(C)N)c2nccc(C)c2c1OC` (centres undefined) as the compound, how does the ED50 read?
Its ED50 is 0.12 mg/kg.

`COc1cc(NC(C)CCCN)c2ncccc2c1OC` (centres undefined) was tested. Which ED50 did it give?
Its ED50 is 0.44 mg/kg.

For `COc1cc(NC(C)CCCN)c2ncccc2c1` (centres undefined) [PRIMAQUINE], which ED50 is on record?
Its ED50 is 0.38 mg/kg.

`COc1cc(NC(C)CCCN)c2ncccc2c1C(=O)C(F)(F)F` (centres undefined) was tested. Which ED50 did it give?
The ED50 was 0.44 mg/kg.

For `CCOc1c(OC)cc(NC(C)CCCN)c2ncccc12` (centres undefined), which ED50 is on record?
Its ED50 is 0.18 mg/kg.

How did the ED50 turn out when `COc1cc(NC(C)CCCN)c2nc(C)ccc2c1Oc1cccc(C(F)(F)F)c1` (centres undefined) was run?
Its ED50 is 0.36 mg/kg.

How did the ED50 turn out when `COc1cc(NCCCCC(C)N)c2nccc(C)c2c1` (centres undefined) was run?
Its ED50 is 0.12 mg/kg.

For `COc1cc(NC(C)CCCNC(C)C)c2nccc(C)c2c1` (centres undefined), which ED50 is on record?
Its ED50 is 0.32 mg/kg.
